Numbers after ± are expanded uncertainties.
Details: 100 kPa, Liquid; for viscosity: Capillary tube (Ostwald / Ubbelohde) method; for mass density: Vibrating tube method

SMILES	viscosity (288.15 K) [mPa·s]	mass density (288.15 K) [kg/m3]	viscosity (293.15 K) [mPa·s]	mass density (293.15 K) [kg/m3]	viscosity (298.15 K) [mPa·s]	mass density (298.15 K) [kg/m3]	viscosity (303.15 K) [mPa·s]	mass density (303.15 K) [kg/m3]	viscosity (308.15 K) [mPa·s]	mass density (308.15 K) [kg/m3]	viscosity (313.15 K) [mPa·s]	mass density (313.15 K) [kg/m3]	viscosity (318.15 K) [mPa·s]	mass density (318.15 K) [kg/m3]	viscosity (323.15 K) [mPa·s]	mass density (323.15 K) [kg/m3]	viscosity (328.15 K) [mPa·s]	mass density (328.15 K) [kg/m3]	viscosity (333.15 K) [mPa·s]	mass density (333.15 K) [kg/m3]	also measured
CCCCCO [pentan-1-ol]	4.7 ± 0.097	818.59 ± 0.61	4.045 ± 0.084	814.89 ± 0.61	3.49 ± 0.072	811.23 ± 0.61	3.034 ± 0.063	807.55 ± 0.61	2.674 ± 0.055	803.83 ± 0.61	2.356 ± 0.049	800.08 ± 0.61	2.052 ± 0.043	796.29 ± 0.61	1.811 ± 0.038	792.46 ± 0.61	1.609 ± 0.033	788.56 ± 0.61	1.433 ± 0.03	784.66 ± 0.61	viscosity (338.15 K): 1.284 ± 0.027 mPa·s; mass density (338.15 K): 780.7 ± 0.61 kg/m3
CCC(C)CO (stereo unspecified) [2-methyl-1-butanol]	6.451 ± 0.13	823.02 ± 0.61	5.285 ± 0.11	819.56 ± 0.61	4.492 ± 0.093	815.82 ± 0.61	3.813 ± 0.079	812.03 ± 0.61	3.258 ± 0.068	808.2 ± 0.61	2.777 ± 0.058	804.33 ± 0.61	2.375 ± 0.049	800.39 ± 0.61	2.057 ± 0.043	796.39 ± 0.61	1.791 ± 0.037	792.34 ± 0.61	1.573 ± 0.033	788.2 ± 0.61	viscosity (338.15 K): 1.377 ± 0.029 mPa·s; mass density (338.15 K): 783.84 ± 0.61 kg/m3
CCCC(C)O (stereo unspecified) [pentan-2-ol]	5.063 ± 0.11	813.55 ± 0.61	4.172 ± 0.087	809.59 ± 0.61	3.412 ± 0.071	805.55 ± 0.61	2.825 ± 0.059	801.44 ± 0.61	2.34 ± 0.049	797.25 ± 0.61	1.993 ± 0.041	792.98 ± 0.61	1.704 ± 0.035	788.63 ± 0.61	1.475 ± 0.031	784.19 ± 0.61	1.303 ± 0.027	779.67 ± 0.61	1.135 ± 0.024	775.07 ± 0.61	viscosity (338.15 K): 1.012 ± 0.021 mPa·s; mass density (338.15 K): 770.37 ± 0.61 kg/m3

— the NIST ThermoML archive (doi:10.1021/acs.jced.7b00996)
